Test results as given in patent publication US6884799B2, “Non-cross-linking pyrrolo[2,1-c][1,4]benzodiazepines and process thereof” (Council of Scientific and Industrial Research, priority 2003, dated 2005).

Experiments:
Format in all cases: cell-based
[1] = test system: non-small-cell lung cancer cell lines; test: NCI in vitro cytotoxicity, SRB assay, non-small-cell lung panel; conditions: Homo sapiens, read-out: Log LC50 (concentration in mol/L causing 50% lethality) (converted)
Protocol: (§1) Biological Activity. In vitro biological activity studies were carried out at National Cancer Institute (USA).
(§2) Cytotoxicity. Compounds Va and Vc were evaluated in vitro against sixty human tumour cells derived from nine cancer types (leukemia, non-small-cell lung, colon, CNS, melanoma, ovarian, prostate, and breast cancer). For each compound, dose response curves for each cell line were measured at a minimum of five concentrations at 10 fold dilutions. A protocol of 48 h continuous drug exposure was used, and a sulforhodamine B (SRB) protein assay was used to estimate cell viability or growth. The concentration causing 50% cell growth inhibition (GI50), total cell growth inhibition (TGI 0% growth) and 50% cell death (LC50, −50% growth) compared with the control was calculated.
(§3) Each cancer type represents the average of six to eight different cancer cell lines.

[2] = test system: ovarian cancer cell lines; test: NCI in vitro cytotoxicity, SRB assay, ovarian panel; conditions: Homo sapiens, read-out: Log LC50 (concentration in mol/L causing 50% lethality) (converted)
Protocol: as §1, §2, §3

Breast cancer cell lines = test: NCI in vitro cytotoxicity, SRB assay, breast panel; conditions: Homo sapiens, read-out: Log LC50 (concentration in mol/L causing 50% lethality) (converted)
Protocol: as §1, §2, §3

colon cancer cell lines = test: NCI in vitro cytotoxicity, SRB assay, colon panel; conditions: Homo sapiens, read-out: Log LC50 (concentration in mol/L causing 50% lethality) (converted)
Protocol: as §1, §2, §3

[3] = test system: leukemia cancer cell lines; test: NCI in vitro cytotoxicity, SRB assay, leukemia panel; conditions: Homo sapiens, read-out: Log LC50 (concentration in mol/L causing 50% lethality) (converted)
Protocol: as §1, §2, §3

CNS cancer cell lines = test: NCI in vitro cytotoxicity, SRB assay, CNS panel; conditions: Homo sapiens, read-out: Log LC50 (concentration in mol/L causing 50% lethality) (converted)
Protocol: as §1, §2, §3

[4] = test system: prostate cancer cell lines; test: NCI in vitro cytotoxicity, SRB assay, prostate panel; conditions: Homo sapiens, read-out: Log LC50 (concentration in mol/L causing 50% lethality) (converted)
Protocol: as §1, §2, §3

renal cancer cell lines = test: NCI in vitro cytotoxicity, SRB assay, renal panel; conditions: Homo sapiens, read-out: Log LC50 (concentration in mol/L causing 50% lethality) (converted)
Protocol: as §1, §2, §3

[5] = test system: melanoma cancer cell lines; test: NCI in vitro cytotoxicity, SRB assay, melanoma panel; conditions: Homo sapiens, read-out: Log LC50 (concentration in mol/L causing 50% lethality) (converted)
Protocol: as §1, §2, §3

[6] = test system: sixty human tumour cells derived from nine cancer types; test: cells; conditions: for GI50 / CC50: Homo sapiens, 48 h; for GI50: read-out: Log10 GI50 mean graph midpoint (MG_MID) (converted); for CC50: read-out: Log10 LC50 mean graph midpoint (MG_MID) (converted); for Log10 TGI mean graph midpoint (MG_MID): total cell growth inhibition (0% growth), 48 h continuous drug exposure, SRB
Protocol: as §1, §2

SMILES | CC50 [1] [µM] | CC50 [2] [µM] | CC50 (Breast cancer cell lines) [µM] | CC50 (colon cancer cell lines) [µM] | CC50 [3] [µM] | CC50 (CNS cancer cell lines) [µM] | CC50 [4] [µM] | CC50 (renal cancer cell lines) [µM] | CC50 [5] [µM] | cytotoxic / anticancer activity in words [6] | GI50 [6] [µM] | CC50 [6] [µM] | Log10 TGI mean graph midpoint (MG_MID) [6]
COc1cc2c(cc1OCCCOc1cc3c(cc1OC)C(=O)N1CCC[C@H]1CN3)N=C[C@@H]1CCCN1C2=O [Compound Va, 7-Methoxy-8-{3-[7-methoxy-(11aS)-1,2,3,10,11,11a-hexahydro-5H-pyrrolo[2,1-c][1,4]benzodiazepine-5-one-8-yloxy]propoxy}-(11aS)-1,2,3,11a-tetrahydro-5H-pyrrolo[2,1-c][1,4]benzodiazepine-5-one] | 38.9 | 70.8 | 43.7 | 25.7 | 83.2 | 32.4 | 83.2 | 63.1 | 3.55 | slightly higher activity | 0.158 | 33.1 | −5.73
COc1cc2c(cc1OCCCCCOc1cc3c(cc1OC)C(=O)N1CCC[C@H]1CN3)N=C[C@@H]1CCCN1C2=O [Compound Vc, 7-Methoxy-8-{5-[7-methoxy-(11aS)-1,2,3,10,11,11a-hexahydro-5H-pyrrolo[2,1-c][1,4]benzodiazepine-5-one-8-yloxy]pentyloxy}-(11aS)-1,2,3,11a-tetrahydro-5H-pyrrolo[2,1-c][1,4]benzodiazepine-5-one] | 72.4 | 97.7 | 89.1 | 91.2 | 34.7 | 81.3 | ≥ 100 | 95.5 | 38 | interesting profile of activity and selectivity for various cell lines | 5.13 | 70.8 | −4.55
